Reference: ChEMBL document CHEMBL4014323, “Hydroxy-Substituted Heteroarylpiperazines: Novel Scaffolds for β-Arrestin-Biased D2R Agonists” (J Med Chem, 2017)

Tests used:
[1] = Intrinsic clearance in Sprague-Dawley rat liver microsomes assessed per mg protein at 20 uM by HPLC analysis; format: ADME, microsome; details: read-out: CLH
D(2) dopamine receptor [2] = target: T1, D(2) dopamine receptor (Homo sapiens, UniProt P14416); format: cell-based, HEK-293T
Description: Partial agonist activity at human D2SR expressed in HEK293T cells co-expressing (EA)beta-arrestin2 and GRK2 assessed as induction of beta-arrestin2 recruitment after 5 hrs by chemiluminescence assay

hERG (KCNH2) [3] = target: T2, hERG (KCNH2) (Homo sapiens, UniProt Q12809); test: Inhibition of human ERG expressed in CHO cells assessed as tail current remaining at 10 uM and -40 holding potential by automated patch-clamp assay; format: cell-based; details: CHO cells expressing human ERG, read-out: Activity
HEK293 = test: Cytotoxicity against HEK293 cells; format: cell-based; details: human
[4] = Binding affinity to microsomal protein in Sprague-Dawley rat liver microsomes after 60 mins in presence of NADPH by HPLC analysis; format: ADME; details: read-out: PB (converted)
D(1B) dopamine receptor = D(1B) dopamine receptor (Homo sapiens, UniProt P21918); test: biochemical
Description: Displacement of [3H]SCH23390 from human D5R expressed in HEK293T cell membranes by radioligand binding assay

D(1A) dopamine receptor = D(1A) dopamine receptor (Homo sapiens, UniProt P21728); test: biochemical
Description: Displacement of [3H]SCH23390 from human D1R expressed in HEK293T cell membranes by radioligand binding assay

[5] = target: T3, Voltage-gated inwardly rectifying potassium channel KCNH2 (Homo sapiens, UniProt Q12809); test: Inhibition of human ERG expressed in CHO cells assessed as reduction in tail current at 1 uM and -40 holding potential by automated patch-clamp assay; format: cell-based
D(4) dopamine receptor = target: T4, D(4) dopamine receptor (Homo sapiens, UniProt P21917); test: biochemical; format: cell-based
T4 sequence (P21917 whole entry): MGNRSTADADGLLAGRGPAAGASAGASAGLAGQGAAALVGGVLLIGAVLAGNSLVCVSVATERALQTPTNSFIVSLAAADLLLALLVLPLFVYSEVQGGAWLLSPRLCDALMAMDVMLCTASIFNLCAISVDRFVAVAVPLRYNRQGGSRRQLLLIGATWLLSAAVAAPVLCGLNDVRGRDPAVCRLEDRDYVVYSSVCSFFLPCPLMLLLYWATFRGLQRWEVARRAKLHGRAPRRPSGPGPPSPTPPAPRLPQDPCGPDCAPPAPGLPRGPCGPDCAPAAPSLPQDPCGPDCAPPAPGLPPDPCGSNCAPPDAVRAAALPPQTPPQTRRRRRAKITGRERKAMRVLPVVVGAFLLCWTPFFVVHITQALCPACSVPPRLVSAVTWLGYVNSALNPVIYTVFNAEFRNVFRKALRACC
Description: Displacement of [3H]spiperone from human D4R expressed in CHO cell membranes by radioligand binding assay

D(2) dopamine receptor [6] = target: T1, D(2) dopamine receptor; format: functional, cell-based, HEK-293T
Description: Agonist activity at human D2S receptor expressed in HEK293T cell membranes coexpressing Galphao1 assessed as induction of nucleotide exchange preincubated for 30 mins followed by addition of [35S]GTPgammaS measured after 30 mins by [35S]GTPgammaS binding assay

[7] = target: T3, Voltage-gated inwardly rectifying potassium channel KCNH2; test: Inhibition of human ERG expressed in CHO cells assessed as reduction in tail current at -40 holding potential by automated patch-clamp assay; format: cell-based
[8] = Binding affinity to microsomal protein in Sprague-Dawley rat liver microsomes after 60 mins in absence of NADPH by HPLC analysis; format: ADME; details: 1 h
D(2) dopamine receptor [9] = target: T1, D(2) dopamine receptor; format: cell-based, HEK-293T; remark: listed apart in the source
Description: Partial agonist activity at human D2SR expressed in HEK293T cells co-expressing (EA)beta-arrestin2 assessed as induction of beta-arrestin2 recruitment after 5 hrs by chemiluminescence assay

[10] = target: 5-hydroxytryptamine receptor 2A (Homo sapiens, UniProt P28223); test: biochemical
Description: Displacement of [3H]ketanserin from human 5-HT2AR expressed in HEK293T cell membranes by radioligand binding assay

D(2) dopamine receptor [11] = target: T1, D(2) dopamine receptor; test: biochemical; format: cell-based
Description: Displacement of [3H]spiperone from human D2LR expressed in CHO cell membranes by radioligand binding assay

D(2) dopamine receptor [12] = target: T1, D(2) dopamine receptor; details: HEK-293T, at 1e-07 to 100 µM
Description: Agonist activity at human D2S receptor expressed in HEK293T cell membranes coexpressing Galphao1 assessed as induction of nucleotide exchange at 0.1 pM to 100 uM preincubated for 30 mins followed by addition of [35S]GTPgammaS measured after 30 mins by [35S]GTPgammaS binding assay relative to quinpirole

[13] = Half life in Sprague-Dawley rat liver microsomes at 20 uM by HPLC analysis; format: ADME, microsome
D(2) dopamine receptor [14] = target: T1, D(2) dopamine receptor; test: biochemical; format: cell-based; remark: listed apart in the source
Description: Displacement of [3H]spiperone from human D2SR expressed in CHO cell membranes by radioligand binding assay

hERG (KCNH2) [15] = target: T2, hERG (KCNH2); test: Inhibition of human ERG expressed in CHO cells assessed as tail current remaining at 50 uM and -40 holding potential by automated patch-clamp assay; format: cell-based; details: CHO cells expressing human ERG, read-out: Activity
Liver = test: Metabolic stability in Sprague-Dawley rat liver microsomes at 20 uM measured after 15 mins by HPLC-based mass-spectrometry; format: ADME, microsome; details: 0.25 h
D(2) dopamine receptor [16] = target: T1, D(2) dopamine receptor; test: Agonist activity at human D2S receptor expressed in HEK293T cell membranes coexpressing Galphao1 assessed as induction of nucleotide exchange at 30 uM preincubated for 30 mins followed by addition of [35S]GTPgammaS measured after 30 mins by [35S]GTPgammaS binding assay relative to quinpirole; format: functional; details: HEK-293T

D(1B) dopamine receptor, sequence (P21918 whole entry): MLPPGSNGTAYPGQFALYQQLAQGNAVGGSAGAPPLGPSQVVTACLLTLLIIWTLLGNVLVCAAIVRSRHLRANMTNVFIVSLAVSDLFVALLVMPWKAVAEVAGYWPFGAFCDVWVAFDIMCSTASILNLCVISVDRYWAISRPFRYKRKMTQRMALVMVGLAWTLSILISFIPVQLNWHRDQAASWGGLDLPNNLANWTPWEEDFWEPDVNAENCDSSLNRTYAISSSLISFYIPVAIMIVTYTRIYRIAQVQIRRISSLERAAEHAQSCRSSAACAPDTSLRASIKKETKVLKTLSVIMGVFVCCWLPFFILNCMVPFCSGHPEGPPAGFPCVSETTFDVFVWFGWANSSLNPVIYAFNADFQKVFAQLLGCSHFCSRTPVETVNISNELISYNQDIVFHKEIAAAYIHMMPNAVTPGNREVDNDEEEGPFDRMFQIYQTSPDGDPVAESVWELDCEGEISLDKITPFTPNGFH
T1 sequence (P14416 whole entry): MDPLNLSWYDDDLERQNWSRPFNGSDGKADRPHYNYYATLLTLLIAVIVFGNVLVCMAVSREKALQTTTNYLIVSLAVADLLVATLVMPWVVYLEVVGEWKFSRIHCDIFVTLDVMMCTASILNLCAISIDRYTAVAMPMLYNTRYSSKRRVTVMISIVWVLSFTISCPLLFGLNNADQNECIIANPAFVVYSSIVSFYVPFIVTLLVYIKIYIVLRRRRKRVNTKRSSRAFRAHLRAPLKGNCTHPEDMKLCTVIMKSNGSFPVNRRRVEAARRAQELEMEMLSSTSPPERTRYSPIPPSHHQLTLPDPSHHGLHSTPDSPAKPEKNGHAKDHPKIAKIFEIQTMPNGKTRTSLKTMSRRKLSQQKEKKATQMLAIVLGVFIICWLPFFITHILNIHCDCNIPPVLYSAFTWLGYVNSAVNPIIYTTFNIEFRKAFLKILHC
T3 sequence (Q12809 whole entry): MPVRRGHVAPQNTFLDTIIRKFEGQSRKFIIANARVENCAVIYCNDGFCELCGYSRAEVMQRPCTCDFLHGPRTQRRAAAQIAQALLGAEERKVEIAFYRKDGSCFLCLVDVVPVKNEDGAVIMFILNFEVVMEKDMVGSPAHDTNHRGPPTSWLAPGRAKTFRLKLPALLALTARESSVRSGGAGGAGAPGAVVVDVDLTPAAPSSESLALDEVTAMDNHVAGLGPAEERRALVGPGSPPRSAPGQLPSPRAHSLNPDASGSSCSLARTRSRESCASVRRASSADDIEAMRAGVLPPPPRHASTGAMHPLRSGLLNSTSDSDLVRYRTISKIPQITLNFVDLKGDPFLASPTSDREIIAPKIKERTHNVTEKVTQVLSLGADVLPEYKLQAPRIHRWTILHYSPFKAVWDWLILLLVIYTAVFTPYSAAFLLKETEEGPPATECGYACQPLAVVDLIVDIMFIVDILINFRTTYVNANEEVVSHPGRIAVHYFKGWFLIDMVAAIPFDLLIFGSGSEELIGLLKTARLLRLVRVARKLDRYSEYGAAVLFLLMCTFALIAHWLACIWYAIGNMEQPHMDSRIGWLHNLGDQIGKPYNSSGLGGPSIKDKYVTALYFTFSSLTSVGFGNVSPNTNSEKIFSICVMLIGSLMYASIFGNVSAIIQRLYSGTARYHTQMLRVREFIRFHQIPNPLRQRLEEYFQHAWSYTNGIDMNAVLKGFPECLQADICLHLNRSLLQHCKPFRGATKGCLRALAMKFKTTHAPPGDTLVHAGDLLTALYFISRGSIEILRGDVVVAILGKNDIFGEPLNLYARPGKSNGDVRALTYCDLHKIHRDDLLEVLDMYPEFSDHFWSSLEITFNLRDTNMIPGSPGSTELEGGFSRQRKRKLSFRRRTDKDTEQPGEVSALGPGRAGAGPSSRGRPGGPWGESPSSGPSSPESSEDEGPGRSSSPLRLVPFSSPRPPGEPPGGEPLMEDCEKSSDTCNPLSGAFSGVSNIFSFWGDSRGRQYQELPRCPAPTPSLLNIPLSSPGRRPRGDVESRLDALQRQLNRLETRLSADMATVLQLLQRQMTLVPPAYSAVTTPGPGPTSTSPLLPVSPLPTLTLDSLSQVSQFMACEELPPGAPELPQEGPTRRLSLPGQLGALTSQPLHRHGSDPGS
D(1A) dopamine receptor, sequence (P21728 whole entry): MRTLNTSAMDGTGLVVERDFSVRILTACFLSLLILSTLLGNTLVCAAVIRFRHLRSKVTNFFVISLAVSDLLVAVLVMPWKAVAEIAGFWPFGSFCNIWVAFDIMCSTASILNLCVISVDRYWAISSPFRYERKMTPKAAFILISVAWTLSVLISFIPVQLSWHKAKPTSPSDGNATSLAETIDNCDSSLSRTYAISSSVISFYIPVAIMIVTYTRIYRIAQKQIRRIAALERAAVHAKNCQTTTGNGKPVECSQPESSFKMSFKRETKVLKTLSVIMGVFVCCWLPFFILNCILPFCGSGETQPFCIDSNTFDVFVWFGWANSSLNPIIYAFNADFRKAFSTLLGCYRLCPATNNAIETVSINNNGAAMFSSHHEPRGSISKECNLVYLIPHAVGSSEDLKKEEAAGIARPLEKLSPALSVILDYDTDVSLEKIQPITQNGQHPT
5-hydroxytryptamine receptor 2A, sequence (P28223 whole entry): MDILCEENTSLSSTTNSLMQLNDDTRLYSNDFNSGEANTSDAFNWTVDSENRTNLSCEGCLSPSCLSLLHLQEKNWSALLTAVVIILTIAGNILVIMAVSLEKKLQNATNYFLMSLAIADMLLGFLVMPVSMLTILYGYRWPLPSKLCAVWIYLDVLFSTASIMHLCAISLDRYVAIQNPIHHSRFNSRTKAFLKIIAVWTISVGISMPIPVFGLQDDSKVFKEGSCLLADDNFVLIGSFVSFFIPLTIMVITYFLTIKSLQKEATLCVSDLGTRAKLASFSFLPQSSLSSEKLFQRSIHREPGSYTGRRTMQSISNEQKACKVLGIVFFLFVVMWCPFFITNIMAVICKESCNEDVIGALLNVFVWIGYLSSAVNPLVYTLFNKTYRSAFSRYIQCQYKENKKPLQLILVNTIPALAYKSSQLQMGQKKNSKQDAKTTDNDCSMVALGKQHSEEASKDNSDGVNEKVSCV
T2 sequence (Q12809 whole entry): as the sequence (Q12809 whole entry) above

Row | Structure (SMILES) | EC50 (D(2) dopamine receptor [2]) [nM] | Activity (HEK293) | Ki (D(1B) dopamine receptor) [nM] | Ki (D(1A) dopamine receptor) [nM] | Ki (D(4) dopamine receptor) [nM] | EC50 (D(2) dopamine receptor [6]) [nM] | EC50 (D(2) dopamine receptor [9]) [nM] | Ki [10] [nM] | Ki (D(2) dopamine receptor [11]) [nM] | Emax (D(2) dopamine receptor [12]) [%] | Ki (D(2) dopamine receptor [14]) [nM] | other results
1 | O=C1CCc2ccc(OCCCCN3CCCN(c4ccc(O)c5[nH]c(=O)ccc45)CC3)cc2N1 | 200 | Non-Toxic | > 20000 | 11000 | 75 | 67 | 190 | 3400 | 1.6 | 55 | 0.81 | microsomal CLint at 20 µM [1]: 11 µL/min/mg; activity at 10 µM (hERG (KCNH2) [3]): 71.7%; fraction unbound at 1 h [4]: 0.73; inhibition (INH) [5]: Not Active; IC50 [7]: 19700 nM; inhibition (INH) ([7]; human): Dose-dependent effect; PB [8]: Not Active; half-life at 20 µM [13]: 130 min; activity at 50 µM (hERG (KCNH2) [15]): 21.5%
2 | O=C1CCc2ccc(OCCCCN3CCN(c4ccc(O)c5c4OCC(=O)N5)CC3)cc2N1 | – | Non-Toxic | 4200 | 12000 | 8.3 | – | 92 | 430 | 0.87 | – | 0.67 | –
3 | Oc1ccc(N2CCN(CCCCOc3ccn4nccc4c3)CC2)c2cccnc12 | – | Non-Toxic | 5800 | 1100 | 55 | – | – | 200 | 33 | – | 25 | –
4 | CCCCn1cc(CCCOc2ccc(C(=O)NCCCN3CCCN(c4ccc(O)c5[nH]c(=O)ccc45)CC3)cc2OC)nn1 | – | Non-Toxic | > 20000 | 17000 | 3200 | – | 680 | 4200 | 350 | – | 440 | –
5 | O=c1ccc2c(N3CCCN(CCCCOc4ccn5nccc5c4)CC3)ccc(O)c2[nH]1 | 250 | Non-Toxic | > 20000 | 13000 | 190 | 90 | 370 | 9000 | 78 | 56 | 46 | microsomal CLint at 20 µM [1]: 27 µL/min/mg; Stability (Liver): Unstable; PB [8]: Not Active; half-life at 20 µM [13]: 51 min
6 | Oc1ccc(N2CCN(CCCCOc3ccn4nccc4c3)CC2)c2c1OCCO2 | – | Non-Toxic | 19000 | 5300 | 160 | – | – | 480 | 110 | – | 68 | –
7 | O=c1ccc2c(N3CCN(CCCCOc4ccn5nccc5c4)CC3)ccc(O)c2o1 | – | Non-Toxic | > 20000 | > 20000 | 270 | – | – | 2800 | 40 | – | 19 | –
8 | CCCN(CCc1cccs1)[C@H]1CCc2c(O)cccc2C1 [ROTIGOTINE] | 4.4 | – | – | – | – | 3.2 | 4.1 | – | – | 91 | – | microsomal CLint at 20 µM [1]: 240 µL/min/mg; Stability (Liver): Unstable; half-life at 20 µM [13]: 5.8 min
9 | O=C1CCc2ccc(OCCCCN3CCN(c4ccc(O)c5oc(=O)ccc45)CC3)cc2N1 | – | Non-Toxic | > 20000 | > 20000 | 870 | – | – | > 20000 | 4.8 | – | 2 | –
10 | O=C1CCc2ccc(OCCCCN3CCN(c4ccc(O)c5[nH]c(=O)ccc45)CC3)cc2N1 | – | Non-Toxic | 9300 | 5400 | 66 | – | 93 | 2200 | 0.89 | – | 1 | –
11 | O=C1COc2c(N3CCN(CCCCOc4ccn5nccc5c4)CC3)ccc(O)c2N1 | – | Non-Toxic | 16000 | 2300 | 4.8 | – | 62 | 1300 | 2 | – | 0.86 | –
12 | CCCCn1cc(CCCOc2ccc(C(=O)NCCCCN3CCCN(c4ccc(O)c5[nH]c(=O)ccc45)CC3)cc2OC)nn1 | – | Non-Toxic | > 20000 | 4000 | 2100 | – | 1600 | 1500 | 200 | – | 220 | –
13 | O=C1CCc2ccc(OCCCCN3CCCN(c4ccc(O)c5oc(=O)ccc45)CC3)cc2N1 | 130 | Non-Toxic | > 20000 | > 20000 | 5000 | > 5000 | 220 | 2300 | 100 | – | 37 | Emax (D(2) dopamine receptor [16]): 36%
14 | CCCN(CCC)CCc1cccc2c1CC(=O)N2 [ROPINIROLE] | 30 | – | – | – | – | 330 | 89 | – | – | 92 | – | –
15 | O=C1CCc2ccc(OCCCCN3CCCN(c4ccc(O)c5c4OCC(=O)N5)CC3)cc2N1 | 630 | Non-Toxic | 15000 | 2700 | 60 | 78 | 470 | 2000 | 1.6 | 26 | 1.6 | –
16 | O=C1CCc2ccc(OCCCCN3CCN(c4ccc(O)c5c4OCCO5)CC3)cc2N1 | – | Non-Toxic | 16000 | 4500 | 300 | – | – | 160 | 2.9 | – | 2.2 | –
17 | O=c1ccc2c(N3CCN(CCCCOc4ccn5nccc5c4)CC3)ccc(O)c2[nH]1 | – | Non-Toxic | 13000 | 4700 | 31 | – | – | 3600 | – | – | – | –
18 | O=C1CCc2ccc(OCCCCN3CCN(c4ccc(O)c5ncccc45)CC3)cc2N1 | – | Non-Toxic | 3400 | 1500 | 94 | – | – | 39 | 3.4 | – | 1.5 | –
19 | CCCN[C@H]1CCc2nc(N)sc2C1 | – | – | – | – | – | – | – | – | – | 102 | – | –
